Values after ≈ are worked out from the molar mass of the structure shown.
Columns and labels:
Format in all cases: functional
[1] = test system: Candida albicans; experiment: Antifungal activity against Candida albicans CA98001
[2] = test system: Candida albicans; experiment: Antifungal activity against Candida albicans DSY735
[3] = test system: Candida albicans; experiment: Antifungal activity against Candida albicans CAAL-74
[4] = test system: Pichia kudriavzevii; experiment: Antifungal activity against Candida krusei CK506
[5] = test system: Pichia kudriavzevii; experiment: Antifungal activity against Candida krusei CK8
[6] = test system: Nakaseomyces glabratus; experiment: Antifungal activity against Candida glabrata CG468
[7] = test system: Candida parapsilosis; experiment: Antifungal activity against Candida parapsilosis CAPA1
[8] = test system: Candida parapsilosis; experiment: Antifungal activity against Candida parapsilosis CAPA2
[9] = test system: Aspergillus fumigatus; experiment: Antifungal activity against Aspergillus fumigatus AF98003
[10] = test system: Candida albicans; experiment: Antifungal activity against Candida albicans; conditions: Candida albicans
[11] = test system: Candida parapsilosis; experiment: Antifungal activity against Candida parapsilosis; conditions: Lodderomyces parapsilosis
[12] = test system: Candida tropicalis; experiment: Antifungal activity against Candida tropicalis; conditions: Candida tropicalis
[13] = test system: Kluyveromyces marxianus; experiment: Antifungal activity against Candida kefyr; conditions: Kluyveromyces marxianus
[14] = test system: Cryptococcus neoformans; experiment: Antifungal activity against Cryptococcus neoformans; conditions: Cryptococcus neoformans
[15] = test system: Trichophyton rubrum; experiment: Antifungal activity against Trichophyton rubrum; conditions: Trichophyton rubrum
[16] = test system: Aspergillus fumigatus; experiment: Antifungal activity against Aspergillus fumigatus; conditions: Aspergillus fumigatus
[17] = test system: Candida albicans; experiment: Antifungal activity against Candida albicans ATCC 76615 after 24 hrs by microbroth dilution method; conditions: ATCC 76615, 24 h
[18] = test system: Candida albicans; experiment: Potency index, ratio of fluconazole MIC to test compound MIC for Candida albicans
[19] = Candida albicans, CA98001, read-out: MIC
[20] = Candida albicans, DSY735, read-out: MIC
[21] = Candida albicans, CAAL-74, read-out: MIC
[22] = Pichia kudriavzevii, CK506, read-out: MIC
[23] = Pichia kudriavzevii, CK8, read-out: MIC
[24] = Nakaseomyces glabratus, CG468, read-out: MIC
[25] = Lodderomyces parapsilosis, CAPA1, read-out: MIC
[26] = Lodderomyces parapsilosis, CAPA2, read-out: MIC

MIC [1, 19] [µg/mL]	MIC [2, 20] [µg/mL]	MIC [3, 21] [µg/mL]	MIC [4, 22] [µg/mL]	MIC [5, 23] [µg/mL]	MIC [6, 24] [µg/mL]	MIC [7, 25] [µg/mL]	MIC [8, 26] [µg/mL]	MIC [9] [µg/mL]	SMILES	other results
0.001 to 0.069 (≈ 0.00209 to 0.144 µM)	0.001 to 0.069 (≈ 0.00209 to 0.144 µM)	0.001 to 0.069 (≈ 0.00209 to 0.144 µM)	0.001 to 0.069 (≈ 0.00209 to 0.144 µM)	0.001 to 0.069 (≈ 0.00209 to 0.144 µM)	0.001 to 0.069 (≈ 0.00209 to 0.144 µM)	0.001 to 0.069 (≈ 0.00209 to 0.144 µM)	0.001 to 0.069 (≈ 0.00209 to 0.144 µM)	0.767 to 3.57 (≈ 1.6 to 7.44 µM)	CC(C)NS(=O)(=O)c1ccc(CN(C)CC(O)(Cn2cncn2)c2ccc(F)cc2F)cc1 (stereo not drawn)	–
0.001 to 0.069 (≈ 0.00203 to 0.14 µM)	0.001 to 0.069 (≈ 0.00203 to 0.14 µM)	0.001 to 0.069 (≈ 0.00203 to 0.14 µM)	0.001 to 0.069 (≈ 0.00203 to 0.14 µM)	0.001 to 0.069 (≈ 0.00203 to 0.14 µM)	0.001 to 0.069 (≈ 0.00203 to 0.14 µM)	0.001 to 0.069 (≈ 0.00203 to 0.14 µM)	0.001 to 0.069 (≈ 0.00203 to 0.14 µM)	0.767 to 3.57 (≈ 1.55 to 7.23 µM)	CC(C)CNS(=O)(=O)c1ccc(CN(C)CC(O)(Cn2cncn2)c2ccc(F)cc2F)cc1 (stereo not drawn)	–
0.001 to 0.069 (≈ 0.00229 to 0.158 µM)	0.001 to 0.069 (≈ 0.00229 to 0.158 µM)	0.001 to 0.069 (≈ 0.00229 to 0.158 µM)	0.001 to 0.069 (≈ 0.00229 to 0.158 µM)	0.001 to 0.069 (≈ 0.00229 to 0.158 µM)	0.001 to 0.069 (≈ 0.00229 to 0.158 µM)	0.001 to 0.069 (≈ 0.00229 to 0.158 µM)	0.001 to 0.069 (≈ 0.00229 to 0.158 µM)	0.767 to 3.57 (≈ 1.75 to 8.16 µM)	CN(Cc1ccc(S(N)(=O)=O)cc1)CC(O)(Cn1cncn1)c1ccc(F)cc1F (stereo not drawn)	–
0.001 to 0.069 (≈ 0.00209 to 0.144 µM)	0.001 to 0.069 (≈ 0.00209 to 0.144 µM)	0.001 to 0.069 (≈ 0.00209 to 0.144 µM)	0.001 to 0.069 (≈ 0.00209 to 0.144 µM)	0.001 to 0.069 (≈ 0.00209 to 0.144 µM)	0.001 to 0.069 (≈ 0.00209 to 0.144 µM)	0.001 to 0.069 (≈ 0.00209 to 0.144 µM)	0.001 to 0.069 (≈ 0.00209 to 0.144 µM)	0.767 to 3.57 (≈ 1.6 to 7.44 µM)	CCCNS(=O)(=O)c1ccc(CN(C)CC(O)(Cn2cncn2)c2ccc(F)cc2F)cc1 (stereo not drawn)	–

More lines, now with the values behind:

SMILES	MIC [1, 19] [µg/mL]	MIC [2, 20] [µg/mL]	MIC [3, 21] [µg/mL]	MIC [4, 22] [µg/mL]	MIC [5, 23] [µg/mL]	MIC [6, 24] [µg/mL]	MIC [7, 25] [µg/mL]	MIC [8, 26] [µg/mL]	MIC [9] [µg/mL]	other results
OC(CN1CCC(OCc2cccc(Cl)c2)CC1)(Cn1cncn1)c1ccc(F)cc1F (stereo not drawn)	–	–	–	–	–	–	–	–	–	MIC80 [10]: 0.01 µM (≈ 0.00463 µg/mL); MIC80 [11]: 0.01 to 2.33 µM (≈ 0.00463 to 1.08 µg/mL); MIC80 [12]: 0.01 to 2.33 µM (≈ 0.00463 to 1.08 µg/mL); MIC80 [13]: 0.01 to 2.33 µM (≈ 0.00463 to 1.08 µg/mL); MIC80 [14]: 0.01 to 2.33 µM (≈ 0.00463 to 1.08 µg/mL); MIC80 [15]: 0.03 to 0.15 µM (≈ 0.0139 to 0.0694 µg/mL); MIC80 [16]: 0.55 to 2.33 µM (≈ 0.255 to 1.08 µg/mL); MIC80 [17]: 0.01 to 2.33 µM (≈ 0.00463 to 1.08 µg/mL); Ratio [18]: 82
OC(CN1CCC(OCc2ccc(F)cc2)CC1)(Cn1cncn1)c1ccc(F)cc1F (stereo not drawn)	–	–	–	–	–	–	–	–	–	MIC80 [10]: 0.01 µM (≈ 0.00446 µg/mL); MIC80 [11]: 0.01 to 2.33 µM (≈ 0.00446 to 1.04 µg/mL); MIC80 [12]: 0.01 to 2.33 µM (≈ 0.00446 to 1.04 µg/mL); MIC80 [13]: 0.01 to 2.33 µM (≈ 0.00446 to 1.04 µg/mL); MIC80 [14]: 0.01 to 2.33 µM (≈ 0.00446 to 1.04 µg/mL); MIC80 [15]: 0.03 to 0.15 µM (≈ 0.0134 to 0.067 µg/mL); MIC80 [16]: 0.55 to 2.33 µM (≈ 0.246 to 1.04 µg/mL); MIC80 [17]: 0.01 to 2.33 µM (≈ 0.00446 to 1.04 µg/mL); Ratio [18]: 82
OC(CN1CCC(OCc2ccccc2Cl)CC1)(Cn1cncn1)c1ccc(F)cc1F (stereo not drawn)	–	–	–	–	–	–	–	–	–	MIC80 [10]: 0.01 µM (≈ 0.00463 µg/mL); MIC80 [11]: 0.01 to 2.33 µM (≈ 0.00463 to 1.08 µg/mL); MIC80 [12]: 0.01 to 2.33 µM (≈ 0.00463 to 1.08 µg/mL); MIC80 [13]: 0.01 to 2.33 µM (≈ 0.00463 to 1.08 µg/mL); MIC80 [14]: 0.01 to 2.33 µM (≈ 0.00463 to 1.08 µg/mL); MIC80 [15]: 0.03 to 0.15 µM (≈ 0.0139 to 0.0694 µg/mL); MIC80 [16]: 0.55 to 2.33 µM (≈ 0.255 to 1.08 µg/mL); MIC80 [17]: 0.01 to 2.33 µM (≈ 0.00463 to 1.08 µg/mL); Ratio [18]: 82
CCCc1ccc(NS(=O)(=O)c2ccc(CN(C)CC(O)(Cn3cncn3)c3ccc(F)cc3F)cc2)cc1 (stereo not drawn)	0.001 to 0.069 (≈ 0.0018 to 0.124 µM)	0.001 to 0.069 (≈ 0.0018 to 0.124 µM)	0.001 to 0.069 (≈ 0.0018 to 0.124 µM)	0.001 to 0.069 (≈ 0.0018 to 0.124 µM)	0.001 to 0.069 (≈ 0.0018 to 0.124 µM)	0.001 to 0.069 (≈ 0.0018 to 0.124 µM)	0.001 to 0.069 (≈ 0.0018 to 0.124 µM)	0.001 to 0.069 (≈ 0.0018 to 0.124 µM)	0.767 to 3.57 (≈ 1.38 to 6.42 µM)	–
CN(Cc1ccc(S(=O)(=O)Nc2ccccc2)cc1)CC(O)(Cn1cncn1)c1ccc(F)cc1F (stereo not drawn)	0.001 to 0.069 (≈ 0.00195 to 0.134 µM)	0.001 to 0.069 (≈ 0.00195 to 0.134 µM)	0.001 to 0.069 (≈ 0.00195 to 0.134 µM)	0.001 to 0.069 (≈ 0.00195 to 0.134 µM)	0.001 to 0.069 (≈ 0.00195 to 0.134 µM)	0.001 to 0.069 (≈ 0.00195 to 0.134 µM)	0.001 to 0.069 (≈ 0.00195 to 0.134 µM)	0.001 to 0.069 (≈ 0.00195 to 0.134 µM)	0.767 to 3.57 (≈ 1.49 to 6.95 µM)	–
CN(Cc1ccc(-c2ccc(C#N)cc2)cc1)CC(O)(Cn1cncn1)c1ccc(F)cc1F (stereo not drawn)	–	–	–	–	–	–	–	–	2.76 (≈ 6.01 µM)	MIC [1]: 0.001 to 1.32 µg/mL; MIC [2]: 0.001 to 1.32 µg/mL; MIC [3]: 0.001 to 1.32 µg/mL; MIC [4]: 0.001 to 1.32 µg/mL; MIC [5]: 0.001 to 1.32 µg/mL; MIC [6]: 0.001 to 1.32 µg/mL; MIC [7]: 0.001 to 1.32 µg/mL; MIC [8]: 0.001 to 1.32 µg/mL
CC(C)c1ccc(NS(=O)(=O)c2ccc(CN(C)CC(O)(Cn3cncn3)c3ccc(F)cc3F)cc2)cc1 (stereo not drawn)	0.001 to 0.069 (≈ 0.0018 to 0.124 µM)	0.001 to 0.069 (≈ 0.0018 to 0.124 µM)	0.001 to 0.069 (≈ 0.0018 to 0.124 µM)	0.001 to 0.069 (≈ 0.0018 to 0.124 µM)	0.001 to 0.069 (≈ 0.0018 to 0.124 µM)	0.001 to 0.069 (≈ 0.0018 to 0.124 µM)	0.001 to 0.069 (≈ 0.0018 to 0.124 µM)	0.001 to 0.069 (≈ 0.0018 to 0.124 µM)	0.767 to 3.57 (≈ 1.38 to 6.42 µM)	–
CN(Cc1ccc(S(=O)(=O)Nc2ccc([N+](=O)[O-])cc2)cc1)CC(O)(Cn1cncn1)c1ccc(F)cc1F (stereo not drawn)	0.001 to 0.069 (≈ 0.00179 to 0.124 µM)	0.001 to 0.069 (≈ 0.00179 to 0.124 µM)	0.001 to 0.069 (≈ 0.00179 to 0.124 µM)	0.001 to 0.069 (≈ 0.00179 to 0.124 µM)	0.001 to 0.069 (≈ 0.00179 to 0.124 µM)	0.001 to 0.069 (≈ 0.00179 to 0.124 µM)	0.001 to 0.069 (≈ 0.00179 to 0.124 µM)	0.001 to 0.069 (≈ 0.00179 to 0.124 µM)	0.767 to 3.57 (≈ 1.37 to 6.39 µM)	–
